Source: patent US5162571A, “Phenol derivatives, their production and use” (Takeda Chemical Industries, Ltd., priority 1987, dated 1992)
Values belong to the compound of their own block, whether it stands above or below them.

Assays:
5-Lipoxygenase = target: T1, 5-Lipoxygenase (Rattus norvegicus, UniProt P12527); assay: 5-Lipoxygenase inhibitory activity (5-HETE production in RBL-1 cells); format: cell-based; conditions: read-out: Inhibitory effect on 5-HETE production (%); for inhibition at 10 µM: 10^-5 M; for inhibition at 1 µM: 10^-6 M; for inhibition at 0.1 µM: 10^-7 M
T1 construct: RBL-1 cells (rat basophilic leukemia cells); endogenous in cells; host or cells: RBL-1 (rat basophilic leukemia cells)
T1 sequence (P12527 1-673): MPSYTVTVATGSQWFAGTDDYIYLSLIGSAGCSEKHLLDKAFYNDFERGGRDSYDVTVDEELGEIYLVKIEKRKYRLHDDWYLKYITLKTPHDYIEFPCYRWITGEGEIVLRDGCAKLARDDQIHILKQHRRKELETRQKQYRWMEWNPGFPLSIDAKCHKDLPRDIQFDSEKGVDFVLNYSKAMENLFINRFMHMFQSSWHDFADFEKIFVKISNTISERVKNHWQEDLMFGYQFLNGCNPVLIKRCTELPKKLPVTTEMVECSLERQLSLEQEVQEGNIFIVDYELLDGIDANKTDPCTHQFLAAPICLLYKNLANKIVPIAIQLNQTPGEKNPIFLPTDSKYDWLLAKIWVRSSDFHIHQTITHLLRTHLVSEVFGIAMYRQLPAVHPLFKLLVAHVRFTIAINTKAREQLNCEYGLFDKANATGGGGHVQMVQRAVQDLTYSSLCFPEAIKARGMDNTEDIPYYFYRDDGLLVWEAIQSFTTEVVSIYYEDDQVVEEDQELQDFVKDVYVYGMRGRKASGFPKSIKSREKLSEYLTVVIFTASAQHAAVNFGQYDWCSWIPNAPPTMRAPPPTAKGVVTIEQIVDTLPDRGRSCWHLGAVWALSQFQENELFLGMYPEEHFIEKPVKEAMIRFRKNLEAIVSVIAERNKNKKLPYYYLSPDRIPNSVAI
Experimental: 5-Lipoxygenase inhibitory activity
Method: 10^7 RBL-1 cells (rat basophilic leukemia cells) were suspended in 0.5 ml of MCM (mast cell medium), and test solutions (made up of 0.5 ml of MCM, 50 μg of arachidonic acid, 10 μg of A-23187 (calcium ionophore) and 1 μM, 0.01 μM and 0.001 μM as the final concentration of the phenol compound, respectively) prepared previously were added respectively to the suspension, followed by reaction at 37° C. for 20 minutes. After the conclusion of the reaction, 4 ml of ethanol and 1,4-dimethoxy-2-methyl-3-(3-methoxypropyl)naphthalene as the internal reference drug were added to the reaction solution, and the mixture was shaken thoroughly and allowed to stand at room temperature for 10 minutes. Then, it was centrifuged (2000 r.p.m.) for 10 minutes, and the supernatant fluid was separated and concentrated to dryness under reduced pressure. 0.5 ml of 60% aqueous methanol was added to the concentrate, and 100 μl of the resulting solution was taken and subjected to high-performance liquid chromatography to determine the amount of 5-HETE (5-hydroxy-eicosatetraenoic acid). Determination of 5-HETE was made through measurement of an absorption at 237 nm with a UV absorption monitor.
The 5-HETE production inhibitory effect (IE) was expressed by [formula] wherein a is a peak height or peak area corrected by the peak for the internal reference when the phenol compound is not contained; b is a peak height or peak area corrected by the peak for the internal reference when the phenol compound is contained.

[1] = test system: lipid peroxides production in rat brain homogenates; assay: Inhibitory action on lipid peroxides production in rat brain homogenates; format: biochemical; conditions: 10^-5 M
Experimental: Inhibitory action on lipid peroxides production in rat brain homogenates
Method: The male SD rat brain tissue was used as 5% homogenate in phosphate-buffered solution. After incubation of the homogenate for 1 hour at 37° C., the amount of lipid peroxides produced was determined by the thiobarbituric acid method according to the description of Ohkawa et al. (Analytical Biochemistry, 95: 551, 1979)
Test compounds were used as a solution of dimethylsulfoxide. The inhibitory action on lipid peroxide production was expressed as a % inhibition as compared with the amount of production in the vehicle group.

[2] = target: T2, Thromboxane A2 (TXA2) receptor (Oryctolagus cuniculus, UniProt Q6WQI8); assay: Thromboxane A2 (TXA2) receptor antagonism: inhibitory effect on contraction of rabbit aorta by TXA2-mimics; format: cell-based; conditions: U-44069 (10^-7 M)-induced contraction; for inhibition at 10 µM: 10^-5 M; for inhibition at 1 µM: 10^-6 M
T2 construct: contraction by TXA2 mimics U-44069 or U-46619
T2 sequence (Q6WQI8 1-233): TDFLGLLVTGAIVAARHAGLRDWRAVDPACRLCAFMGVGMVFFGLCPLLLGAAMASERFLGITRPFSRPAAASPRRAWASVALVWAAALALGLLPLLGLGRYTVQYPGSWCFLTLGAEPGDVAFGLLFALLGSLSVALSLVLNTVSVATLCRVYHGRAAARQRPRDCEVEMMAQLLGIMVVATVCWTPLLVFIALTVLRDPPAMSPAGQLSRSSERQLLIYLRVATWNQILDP
Experimental: Thromboxane A2 (TXA2) receptor antagonism
Inhibitory effect on contraction of rabbit aorta by thromboxan A2 (TXA2)-mimics
(§1) Method: A spiral strip of the rabbit aorta (2-3 mm wide, about 3 cm long) was suspended in Krebs-Henseleit solution under the load of 2 g. The Krebs-Henseleit solution was saturated with a mixed gas of 95%O2 -5%CO2 and warmed at 37° C. Inhibition of the contraction of the vascular strip caused by a TXA2 mimic substance U-44069^1) (10^-7 M) or U-46619^2) (3×10 ^-8 M), by pretreatment with Compound No. 13 30 minutes before was studied.
1) U-44069: (5Z, 9α, 11α, 13E, 15S)-15-hydroxy-9,11-(epoxymethano)-prosta-5,13-dienoic acid (manufacturedby The Upjohn Company in U.S.A.)
2) U-46619: (5Z, 9α, 11α, […], 15S)-15-hydroxy-11,9-(epoxymethano)-prosta-5,13-dienoic acid (manufacturedby Cayman Chemical Company)
In Table 5, "*" represents addition of U-46619.

[3] = test system: U-46619 (TXA2 mimic)-induced broncho-constriction; assay: Inhibitory effect on U-46619 (TXA2 mimic)-induced broncho-constriction in guinea pig; format: in vivo; conditions: Cavia porcellus, ** p < 0.01; for inhibition in vivo at 5 mg/kg: po, 5 mg/kg p.o., 1 hour before U-46619
Experimental: Inhibitory effect on U-46619 (TXA2 mimic)-induced broncho-constrictionin guinea pig
Method: Eight male Hartley guinea pigs were used per one group. The guinea pig anesthetized with urethane (1.5 g/kg, i.p.) was fixed in a dorsal position, subjected to tracheotomy and connected to a respirator through a cannula. A side branch of the tracheal cannula was connected to a respirator (Harvard apparatus rodent respirator Type 680) at the rate of 70 strokes/min. and a constant volume of 3 to 5 ml.
Inflation pressure was kept constant at 10 cm H2 O.
After treatment with gallamine triethiodide (1 mg/kg, i.v.), U-46619 (10 μg/Kg) dissolved in a physiological saline solution was given through a carotid cannula and the airway resistance was measured by the overflow technique of Konzett-Rossler method (Konzett, H. and Rossler, R., Naunyn-Schmiedegerg's Arch, Exp. Path. Pharmak., 195, 71-74 (1940). A test compound was suspended in 5% gum arabic solution and was administered orally 1 hour before the treatment with U-46619.
Alternatively, a test compound was dissolved in aqueous 50% dimethylsulfoxide solution and administered interveneously in the dosage of 0.1 ml/100 g body weight 9 minutes before the treatment of U-46619.

[4] = target: T3, specific [^3 H] U-46619 binding to guinea pig platelet membrane (Cavia porcellus, UniProt A0A286Y4I8); assay: Inhibition of specific [^3 H] U-46619 binding to guinea pig platelet membrane; conditions: [^3 H] U-46619, 25° C., 30 min; read-out: IC50 (Concentration for 50% inhibition)
T3 construct: Platelet membranes were prepared according to the following procedure; from tissue; host or cells: guinea pig platelet membranes
T3 sequence (A0A286Y4I8 1-347): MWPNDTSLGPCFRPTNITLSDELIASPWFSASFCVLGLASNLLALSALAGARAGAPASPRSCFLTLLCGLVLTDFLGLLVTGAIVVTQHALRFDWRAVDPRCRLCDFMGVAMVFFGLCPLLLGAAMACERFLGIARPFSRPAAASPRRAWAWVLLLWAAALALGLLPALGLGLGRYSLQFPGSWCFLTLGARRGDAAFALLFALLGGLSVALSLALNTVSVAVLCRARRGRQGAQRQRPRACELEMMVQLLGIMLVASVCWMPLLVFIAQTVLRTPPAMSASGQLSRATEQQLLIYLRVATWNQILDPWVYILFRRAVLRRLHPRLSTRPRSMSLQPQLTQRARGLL
Experimental: Inhibition of specific [^3 H] U-46619 binding to guinea pig platelet membrane
Method: Blood from normal guinea pig was collected into 0.315% citrate solution containing aspirin (final concentration 1 mM) and was centrifuged at 3000 r.p.m. for […]. The PRP (platelet rich plasma) was centrifuged at 4800 r.p.m for 10 min. at 4° C. Platelet membranes were prepared according to the following procedure: In order to remove the residual plasma protein, the platelet pellet was washed once with 30 ml of buffer containing 25 mM Tris-HCl/5 mM MgCl2 (pH 7.4) and recentrifuged to pellet the platelets. The platelets were then resuspended in 20 ml of the same buffer, and the cells were disrupted by sonication. The sonication was performed on ice using a Kontes Sonicator (Vineland, N.J.). The platelets were sonicated for a total of 90 sec. with a 15 sec. burst followed by a 15 sec. intermission. The sonicated mixture was centrifuged at 100,000×g for 1 hour and the membrane fraction was suspended in the same buffer. The protein concentration was adjusted to 1 mg/ml.
The binding assay was performed at 25° C. for 30 min. One ml of the resuspended membrane fraction was incubated with […] of [^3 H] U-46619. The incubation mixture was filtered through a glass fiber membrane (GF/C, whatman) to separate the membrane bound from free [^3 H] U-46619. The membranes were quickly washed twice with 5 ml of cold buffer, mixed with 4 ml of ACS scintillation fluid and counted for [^3 H] U-46619.

chorioallantoic membrane = assay: Angiogenesis inhibitory activity, shell-less chorioallantoic membrane (CAM) assay; format: in vivo, chick; conditions: 6 disks tested
Experimental: Angiogenesis inhibitory activity
Method: Shell-less chorioallantoic membrane assay.
The shell-less chorioallantoic membrane (CAM) assay was carried out by the method of Taylor and Folkman [S. Taylor and J. Folkman; Nature, 297, 307 (1982)] with a slight modification. Thus, 3-day chick embryos were removed from their shells and cultured in plastic cups on hammocks of plastic wrap. Samples along with ECGS (endothelial cell growth supplements, Collaborative Research Inc.) were placed on plastic disks (polypropylene, 6 mm in diameter). After the solution had dried, the disks were placed on the CAM of 10-day embryos. Three days later, inhibition of the neovascular formation by fumagillin was observed under a stereoscope (×20, SMZ-10, Nikon), and compared to the control disk containing ECGS as a stimulant of angiogenesis without samples.

[5] = test system: vasoconstriction by PGD2 (rabbit aorta); assay: Inhibitory effect of vasoconstriction by PGD2; format: cell-based; conditions: Oryctolagus cuniculus; 10^-7 M; PGD2 (3×10^-6 M); n = 2; read-out: Inhibitory Rate (%)
Experimental: Inhibitory effect of vasoconstriction by PGD2
as §1, with “95% O2 -5% CO2” for “95%O2 -5%CO2”, “addition of PGD2 (3×10^-6” for “a TXA2 mimic substance U-44069^1) (10^-7”, “M)” for “M) or U-46619^2) (3×10 ^-8 M),”

- inhibition at 10 µM (5-Lipoxygenase): 100%
- inhibition at 1 µM (5-Lipoxygenase): 90%
- inhibition at 0.1 µM (5-Lipoxygenase): 27%
Compound: Cc1cc(O)c(O)c(C(CCCCCC(=O)O)c2ccc(F)cc2)c1C (centres unmarked) [Compound 57, 7-(4-fluorophenyl)-7-(2,3-dihydroxy-5,6-dimethylphenyl)heptanoic acid]

Compound: Cc1cc(C)c(O)c(C(CCCCCCO)c2ccccc2)c1C (centres unmarked) [Compound 5, 7-(2-hydroxy-3,5,6-trimethylphenyl)-7-phenylheptanol]
- Inhibition (%) [1]: 100%

- inhibition at 10 µM [2]: 100%
- inhibition at 1 µM [2]: 27%
- IC50 [4]: 130 nM
Compound: Cc1c(C)c(C)c(C(CCCCCC(=O)O)c2ccc(F)cc2)c(O)c1C (centres unmarked) [Compound 9]
- inhibition in vivo at 0.31 mg/kg ([3]; iv, 0.31 mg/kg i.v., 9 minutes before U-46619): 65%
- Inhibition (%) [1]: 100%

- inhibition at 10 µM [2]: 100%
- inhibition at 1 µM [2]: 56%
- IC50 [4]: 240 nM
Compound: Cc1cc(C)c(O)c(C(CCCCCC(=O)O)c2ccc(F)cc2)c1C (centres unmarked) [Compound 1, 7-(4-fluorophenyl)-7-(2-hydroxy-3,5,6-trimethylphenyl)heptanoic acid]
- inhibition in vivo at 5 mg/kg [3]: 55%
- Inhibition (%) [1]: 92.0%
- Number of disks showing angiogenesis inhibition (chorioallantoic membrane; 4 μg): 3
- Number of disks showing angiogenesis inhibition (chorioallantoic membrane; 20 μg): 6

- inhibition at 10 µM (5-Lipoxygenase): 93%
- inhibition at 1 µM (5-Lipoxygenase): 93%
- inhibition at 0.1 µM (5-Lipoxygenase): 66%
Compound: CC(C)(C)c1cc(O)c(O)c(C(CCCCCC(=O)O)c2ccccc2)c1 (centres unmarked) [Compound 56]
- Inhibition (%) [1]: 100%

Compound: CCCCCCC(c1ccc(F)cc1)c1c(C)c(C)cc(C)c1O (centres unmarked) [Compound 6]
- Inhibition (%) [1]: 100%

- inhibition at 0.1 µM ([2]; 10^-7 M): 98%
- IC50 [4]: 2.3 nM
Compound: Cc1c(C)c(C=O)c(C)c(C(CCCCCC(=O)O)c2ccc(F)cc2)c1O (centres unmarked) [Compound 27, 7-(4-fluorophenyl)-7-(3-formyl-6-hydroxy-2,4,5-trimethylphenyl)heptanoic acid]
- inhibition at 0.1 µM [5]: 100%
- inhibition in vivo at 5 mg/kg [3]: 84%

Compound: Cc1c(C)c(Cc2ccc(F)cc2)c(C)c(C(CCCCCC(=O)O)c2ccc(F)cc2)c1O (centres unmarked) [Compound 20]
- Inhibition (%) [1]: 74.5%
